Measurements as given in US12097222B2, “Methods for attenuating viral infection and for treating lung injury” (Spiritus Therapeutics, Inc., priority 2019, dated 2024).
Marks after values point to notes of the source that are not given here.

Legend:
[1] = test system: BLM-induced lung injury in 22-month old male C57BL/6 mice; experiment: BLM-induced pulmonary fibrosis in aged mice, ASCs given on day 12; format: in vivo, mouse; details: n = 4-5/group
AR mRNA = AR mRNA expression in lungs of BLM-treated male mice
[2] = test system: myofibroblasts from mouse lungs 21 day post BLM; experiment: Double transfection of myofibroblasts with miR-29a mimic and miR-199-3p inhibitor; format: cell-based; details: mouse isolates (data not shown)
[3] = test system: myofibroblasts isolated from lungs of patients with IPF; experiment: as above; format: cell-based, human
MERS-CoV [4] = details: vs untreated animals; cited from earlier work
MERS-CoV [5] = details: in vitro; cited from earlier work
ER = experiment: ERE luciferase reporter (ER transcriptional activation) in hASCs
MSC migration = details: cited from earlier work
CXCR4 = biological target: T1, CXCR4 (Mus musculus, UniProt P70658); details: cited from earlier work
T1 construct: host or cells: BM-MSCs (endogenous receptor)

MERS-CoV [6] = details: in vitro; cited from earlier work; remark: listed apart in the source
[7] = lung tissue, day 21, ASCs on day 12 post-BLM
[8] = double transfection miR-29a mimic + miR-199-3p inhibitor, 48 hours post-transfection

T1 sequence (P70658 whole entry): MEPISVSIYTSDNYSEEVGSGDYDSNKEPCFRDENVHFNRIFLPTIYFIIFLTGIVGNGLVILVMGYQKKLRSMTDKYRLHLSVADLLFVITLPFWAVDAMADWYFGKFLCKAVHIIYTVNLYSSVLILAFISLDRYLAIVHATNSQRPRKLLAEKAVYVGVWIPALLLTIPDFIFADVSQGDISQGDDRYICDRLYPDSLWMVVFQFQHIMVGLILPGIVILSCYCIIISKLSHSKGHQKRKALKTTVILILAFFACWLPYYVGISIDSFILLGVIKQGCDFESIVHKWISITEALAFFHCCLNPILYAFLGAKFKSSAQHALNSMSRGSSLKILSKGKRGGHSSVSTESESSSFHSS

Compound: bleomycin sulfate [BLM]
- Interval weight change at day 7 (mean ± SEM) ([1]; day 7 after intratracheal BLM 2.0 U/kg (before ASC administration on day 12)): −14.2 ± 1.7%^a
- Overall weight change at day 21 (mean ± SEM) ([1]; day 21 sacrifice, BLM 2.0 U/kg, ASCs 5×10^5 by tail vein on day 12): −27.3 ± 3.7%^aa
- Collagen type 1α1 mRNA/18s [1, 7]: 213 ± 63
- TNF-α mRNA/18S [1, 7]: 0.80 ± 0.180^a
- αvintegrin mRNA/18S [1, 7]: 1.09 ± 0.14^a
- increase of AR mRNA in lungs (AR mRNA; BLM-treated male mice): six-fold increase
- R mRNA expression/18s (AR mRNA; lungs of BLM-treated male mice (n = 15) vs saline (n = 16), p < 0.05): 2.0 ± 0.5

Compound: miR-29a mimic: plasmid containing miR-29a mimic AACCGATTTCAGATGGTGCT (SEQ ID NO: 1), Exiqon (described as plasmid-borne mimic, chemistry not given here)
- MMP-2 activity [2]: decreased MMP-2 activity
- Upregulation of miR-29a (RT-PCR) ([3]; co-transfection with miR-199-3p inhibitor): > 5000 fold
- MMP-2 activity (zymography) [3, 8]: decreased MMP-2 activity

Compound: COc1c(C)c2c(c(O)c1C/C=C(\C)CCC(=O)O)C(=O)OC2 [MPA, Mycophenolic acid]
- disease outcome and viral loads (MERS-CoV [4]): developed severe and/or fatal disease with higher mean viral loads
- inhibition activity against MERS-CoV (MERS-CoV [5]): strong inhibition activity

Compound: C[C@]12CC[C@@H]3c4ccc(O)cc4CC[C@H]3[C@@H]1CC[C@@H]2O [E2, 17β-estradiol]
- ER transcriptional activation (luciferase/B-gal) (ER; hASCs from post-menopausal women): less than a two-fold change
- ER transcriptional activation (luciferase/B-gal) (ER; hASCs from pre-menopausal women, E2 10 nM): greater than sixfold
- ER transcriptional activation (luciferase/B-gal) (ER; hASCs from pre-menopausal women, E2 0.1 and 1 nm): greater than five-fold

Compound: COc1cccc(-c2cc(=O)c3ccccc3o2)c1N [PD98059]
- effect on IGF-1-induced increase in MSC migration in response to SDF-1 (MSC migration): not

Compound: C[C@]12CC[C@@H]3c4ccc(O)cc4C[C@@H](CCCCCCCCC[S+]([O-])CCCC(F)(F)C(F)(F)F)[C@H]3[C@@H]1CC[C@@H]2O (stereo partly shown) [ICI 182,780, fulvestrant]
- block of E2-induced ER transcriptional activation (ER; hASCs, with E2 1 or 10 nM): able to block activation by E2

Compound: miR-199-3p inhibitor: plasmid containing miR-199-3p inhibitor AACCAATGTGCAGACTACTG (SEQ ID NO: 2), Exiqon (described as plasmid-borne inhibitor, chemistry not given here)
- CAV-1 expression [2]: increased CAV-1 expression
- downregulation of miR-199-3p expression (RT-PCR) ([3]; co-transfection with miR-29a mimic): at least 100 fold
- CAV-1 expression (western) [3, 8]: increased CAV-1 expression

Compound: TN14003
- inhibition of SDF-1 promoted chemotactic migration of BM-MSCs (CXCR4): completely inhibited

Compound: Cc1cccc(C)c1OCC(=O)N[C@@H](Cc1ccccc1)[C@@H](O)C[C@H](Cc1ccccc1)NC(=O)[C@H](C(C)C)N1CCCNC1=O [lopinavir]
- 50% effective cytotoxic concentration (EC50) against MERS-CoV (MERS-CoV [6]): suboptimal
